The values that follow come from patent US9598463B2, “Mucin hypersecretion inhibitors and methods of use” (BIOMARCK PHARMACEUTICALS, LTD., priority 2005, dated 2017).

The subject of assay [1] is ATP-induced mucin hypersecretion. Briefly: Aerosolized Ac-peptide 106 on ATP-induced mucin hypersecretion in mouse model with goblet cell metaplasia. The class given is in vivo, BALB/c mice. The following applies: aerosol. As for the experimental part: The efficacy of aerosolized Ac-peptide 106 on mucin hypersecretion in a mouse model of asthma was determined at two concentrations. Briefly, 5- to 8 week old BALB/c mice were immunized weekly as described above in Example 1A for 3 weeks with ovalbumin. On Day 28 the mice were challenged with aerosolized 2.5% ovalbumin in normal saline for 30 minutes. Three days after ovalbumin challenge, each group of mice (n=2) was administered an aerosolized isotonic solution of Ac-peptide 106 at […] or 30 mM for 1 hour with an AeroMist CA-209 nebulizer. The mass median aerodynamic diameter of the aerosol particles was 1.49 um (range 0.4 to 4.7 urn). Given these concentrations of Ac-peptide 106 and this particle size, the calculated pulmonary deposition of Ac-peptide 106 was 0.38 mg/kg body weight and 1.1 mg/kg body weight, respectively.
Ac-peptide 106 administration was immediately followed by aerosol administration of the secretagogue adenosine triphosphate (ATP) ([…] in saline) for 5 minutes. The mice were sacrificed, and the lungs were harvested within 20 minutes. The lungs were rinsed with saline, fixed with paraformaldehyde, embedded in paraffin, and sectioned. The sections were quantitatively analyzed for the presence of mucin by quantitative immunohistochemistry according to the method of Evans et al. (Am. J. Respir. Cell Mol. Biol. Vol. 31, pp 382-394, 2004).

In assay [2] the test system is HBE1 cells. The assay is described as follows: PMA-induced mucin hypersecretion in human bronchial epithelial cells (air/liquid interface, MUC5A ELISA). In kind it is cell-based. The following applies: pretreatment with 25 μM peptide, then 0.5 μM PMA. Here is the method:
HBE1 is a papilloma virus-transformed human bronchial epithelial cell line capable of mucin secretion when cultured in air/liquid interface. HBE1 cells were cultured in the air/liquid interface as described previously (Li et al, J. Biol. Chem., volume 276, pp 40982-40990, 2001). Briefly, HBE1 cells were cultured in air/liquid interface by seeding an appropriate number of cells in 12-well Transwell clear culture inserts (Costar, Cambridge, Mass.) that were thinly coated with rat tail collagen, type I (Collaborative Biomedical, Bedford, Mass.). Cells were initially cultured submerged in medium in a humidified 95% air, 5% CO2 environment for 5-7 days until nearly confluent. At that time, the air/liquid interface was created by removing the apical medium and feeding cells basalaterally. Medium was renewed daily thereafter. Cells were cultured for an additional 14 days to allow full differentiation. The accumulated mucin at the apical surface of the cells was removed by washing with phosphate-buffered saline, pH 7.2. To collect the baseline mucin secretion, cells were incubated for 30 min with medium alone and secreted mucin in the apical medium was collected, and quantitated by ELISA. To determine the mucin hypersecretion induced by a mucin secretagogue, cells were exposed to medium containing 0.5 μM phorbol myristate acetate, (PMA) for 30 min. and mucin was collected and quantitated by ELISA. […] Six wells were used for each test peptides and for each control. Secreted mucin in the apical medium was collected and quantitated by sandwich ELISA method using alkaline phosphatase-conjugated mucin (MUC5A) specific antibody (Zymed Laboratories, San Francisco, Calif.).
(An ELISA detects its analyte on a solid surface through an enzyme-linked reagent.)

Turning to Ac-GAQFSKTAAK-OH [Ac-peptide 106], the “Inhibition of ATP-induced mucin hypersecretion” value is recorded as 30% in assay [1] (calculated pulmonary deposition 0.38 mg/kg body weight) and 67% in assay [1] (calculated pulmonary deposition 1.1 mg/kg body weight). Moreover, the “Block of PMA-induced increase in mucin secretion” value in assay [2] is reported as 100%.
